Assay results as given in patent US9464064B2, “HCV helicase inhibitors and methods of use thereof” (University of Kansas, priority 2011, dated 2016).

Target: T1, HCV NS3 helicase NS3h_1b(con1) (Hepatitis C virus genotype 1b, UniProt Q9WMX2)
T1 construct: truncated C-terminally His-tagged NS3 proteins lacking the N-terminal protease, called NS3h; His-tag (C); made in house
Assay: MBHA screen of NCI mechanistic set library at 20 μM (percent inhibition, compound interference)
Assay type: biochemical
Conditions: compounds at 20 μM; for Inh. (%) (Inhibition): calculated from Equation 1
Outline: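 Molecular beacon-based DNA unwinding assay; compounds screened at 20 μM in triplicate, with DMSO-only negative and 500 nM dT20 positive controls. Fluorescence (ex 643/em 670 nm) was read before and 30 min after adding ATP to 1 mM. Percent inhibition came from the change relative to DMSO controls; interference from pre-ATP fluorescence versus DMSO controls.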

[1] = MBHA with DNA substrate, assay interference calculated with Equation 2
[2] = assay interference calculated with Equation 2 (fluorescence vs DMSO-only controls before ATP)

T1 sequence (Q9WMX2 1192-1657): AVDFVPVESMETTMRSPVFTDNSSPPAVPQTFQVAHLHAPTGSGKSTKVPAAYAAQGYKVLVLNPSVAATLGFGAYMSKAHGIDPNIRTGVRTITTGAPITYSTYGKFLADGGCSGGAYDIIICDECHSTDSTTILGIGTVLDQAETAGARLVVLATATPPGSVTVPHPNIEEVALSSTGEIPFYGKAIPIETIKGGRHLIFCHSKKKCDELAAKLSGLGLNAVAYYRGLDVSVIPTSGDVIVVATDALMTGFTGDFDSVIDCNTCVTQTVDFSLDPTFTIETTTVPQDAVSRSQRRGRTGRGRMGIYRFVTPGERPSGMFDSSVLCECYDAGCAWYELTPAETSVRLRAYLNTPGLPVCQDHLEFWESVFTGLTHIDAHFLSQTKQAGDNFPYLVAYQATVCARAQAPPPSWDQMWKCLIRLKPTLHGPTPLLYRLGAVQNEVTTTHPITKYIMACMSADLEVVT

Compound	Int.* (Ratio) (Interference) [1]	Inh. (%) (Inhibition) (MBHA with DNA substrate)	Inh. (%) (Inhibition) (MBHA with a DNA substrate)	Int.* (Ratio) (Interference) [2]
Cc1cc(Cl)ccc1N1C(=O)C(=O)C(c2nc3ccccc3o2)C(=O)C1=O [Compound 623051]	0.92	−10.9		
COc1ccc2nc(NC(=O)C(=O)CC(=O)c3ccc(Cl)cc3)sc2c1 [Compound 623059]	0.94	−8.7		
O=C(Nc1ccccc1-c1nn(C(=S)Nc2ccccc2)c(=S)n(C(=S)Nc2ccccc2)c1=O)C(F)(F)F [Compound 623093]			−4.2	0.87
CN(C)c1ccc(/C=c2/sc3nc(=O)c(-c4ccccc4NC(=O)C(F)(F)F)nn3c2=O)cc1 [Compound 623095]	0.81	−15.3		
CC(=O)OCc1c2ccccc2c(C)c2c1cc(F)c1ccccc12 [Compound 623135]	0.87	36.6		
CCCCCCCCCCCCCCCCCCOCC(COCCOCC[N+]1(CCCCCC(=O)[O-])CCCC1)Oc1ncccn1 (centres unmarked) [Compound 623527]			−21.1	0.98
COC(=O)c1ccccc1OCc1cc(=O)oc2ccc(C)cc12 [Compound 623637]			−3.5	0.97
CCOC(=O)C1=C(O)CSC1=Nc1ccc(N=C2SCC(O)=C2C(=O)OCC)cc1 [Compound 623746]			−29.6	0.99
Cc1ccc(S(=O)(=O)SC/C=C/CSS(=O)(=O)c2ccc(C)cc2)cc1 [Compound 624158]			9.2	0.90
O=S(=O)(O)SC/C=C/CSS(=O)(=O)O [Compound 624161]	1.03	−8.2		
Cl.NCCSSCc1ccccc1CSSCCN [Compound 624169]			7.7	0.96
CCCCCCCCCCNCCSSCc1ccc(Cl)cc1.Cl [Compound 624206]	0.81	0.1		
CC12CC(Br)(Br)C(=O)C3C1CCCC32 [Compound 624358]			−4.4	1.05
Cc1[nH]c(=O)nc(N/N=C/c2ccc(Cl)cc2)c1C(=O)Nc1ccc(Cl)cc1 [Compound 624947]	0.86	−14.2		
C=CCOC1OC(CO[Si](C)(C)C(C)(C)C)C(OCc2ccccc2)C(OCc2ccccc2)C1OCc1ccccc1 (centres unmarked) [Compound 624953]	0.90	−7.5		
O=c1ncccn1C1OC(CO)C(O)C1F (centres unmarked) [Compound 625355]	1.05	−10.4		
Fc1cccc(Cl)c1C1SCc2nc3ccccc3n21 (centres unmarked) [Compound 625483]			12.0	0.93
Fc1cccc(F)c1C1SCc2nc3ccccc3n21 (centres unmarked) [Compound 625487]	1.01	−0.1		
COc1ccc2cccc(C(=N)c3ccc(C)c4c3CCC4)c2c1 [Compound 625590]	0.95	14.3		
Cc1ccccc1NC(=O)/C=N/O [Compound 625639]	1.09	−17.7		
Cc1cc([N+](=O)[O-])ccc1Nc1cccc(Cl)c1C [Compound 625641]			−37.8	1.20
O=[N+]([O-])c1cc(C(F)(F)F)cc2n[se]nc12 [Compound 627371]	0.92	−10.1		

More lines, now with the values ahead:

Int.* (Ratio) (Interference) [1]	Inh. (%) (Inhibition) (MBHA with DNA substrate)	Inh. (%) (Inhibition) (MBHA with a DNA substrate)	Int.* (Ratio) (Interference) [2]	Compound
0.94	−11.6			C1CN(c2nnc(N3CCC3)nn2)C1 [Compound 625748]
1.02	−16.6			COc1ccccc1Cc1nc(-c2ccccc2)nn(C2OC(COC(C)=O)C(OC(C)=O)C(OC(C)=O)C2OC(C)=O)c1=S (centres unmarked) [Compound 625873]
0.97	15.1			COC1OC(COCc2ccc(Cl)cc2)C(OCc2ccc(Cl)cc2)C1O (centres unmarked) [Compound 626120]
0.98	−2.2			O=Cc1cc([N+](=O)[O-])no1 [Compound 626433]
		−24.9	0.90	CC(C)C(=O)OCN(C)c1nc(N(C)COC(=O)C(C)C)nc(N(C)COC(=O)C(C)C)n1 [Compound 626551]
1.02	−18.3			COc1ccc(C2C(C)C(=O)C(C)C(c3ccc(OC)cc3)N2N=O)cc1 (centres unmarked) [Compound 626734]
0.53	64.3			COc1ccc2c(c1)-c1nn(CCCN(C)C)c3ccc([N+](=O)[O-])c(c13)N2 [Compound 627168]
		−3.6	0.87	COc1cc2c3c(c1OC)-c1cc4c(cc1CC3(C#N)N(C(=O)c1ccccc1)CC2)OCO4 (centres unmarked) [Compound 627666]
1.03	−11.4			Cc1ccc(S(=O)(=O)c2ccccc2[N+](=O)[O-])cc1 [Compound 627708]
0.91	0.8			N#CC1(C#N)C2C=CC(c3coc4cccc2c34)C1(C#N)C#N (centres unmarked) [Compound 629301]
		−20.3	0.90	O=C1c2ccccc2C(=O)c2nc(-c3ccccc3)c(-c3ccccc3)nc21 [Compound 629713]
0.97	5.9			O=C(NCCCCCCCCNC(=O)c1cccc2ccccc12)c1cccc2ccccc12 [Compound 629738]
		−20.4	0.96	CC[C@@]1(O)C(=O)OCc2c1cc1n(c2=O)Cc2cc3c(N)cccc3nc2-1 [Compound 629971]
0.89	1.3			O=C(CCc1ccccc1)On1nnc2ccccc2c1=O [Compound 630374]
0.94	−7.3			Cn1cnc([N+](=O)[O-])c1Sc1nnnn1-c1ccccc1 [Compound 631152]
		9.9	0.91	Cn1cnc([N+](=O)[O-])c1Sc1nnc(-c2cccnc2)n1C [Compound 631160]
		−22.6	0.93	O=C1c2ccccc2C(=O)c2sc(Nc3ccc(Cl)c(Cl)c3)nc21 [Compound 631521]
		−28.9	1.06	O=C1c2ccccc2C(=O)c2sc(Nc3ccc(Cl)cc3)nc21 [Compound 631529]
0.98	5.1			N#CC1=C(N)Oc2c(ccc3cccnc23)C1c1ccccc1 (centres unmarked) [Compound 631583]
1.04	−2.7			COc1ccc(Cc2nc3ccccc3s2)cc1OC [Compound 632233]
0.84	20.7			CC1(C)CC(Nc2ccc(Nc3ccccc3)cc2)CC(C)(C)N1 [Compound 632536]
0.87	20.4			Cc1ccc(/C=C2\CNC/C(=C\c3ccc(C)cc3)C2=O)cc1.Cl [Compound 632839]
0.81	15.6			C=CC(=O)N1C/C(=C\c2ccccc2)C(=O)/C(=C/c2ccccc2)C1 [Compound 632841]
0.89	23.2			O=[N+]([O-])c1ccccc1S(=O)(=O)c1ccccc1[N+](=O)[O-] [Compound 633001]
		9.9	0.87	O=C(NC(=O)c1c(Cl)nc2sccn12)Nc1ccc(Cl)cc1 [Compound 633209]
1.17	2.7			O=C1C(c2cnc3ccccc3n2)=C(O)c2ccccc21 [Compound 634224]
0.99	−17.6			Cc1c(Cl)cccc1NC(=O)CC1Sc2ccccc2NC1=O (centres unmarked) [Compound 634396]
